Results from ChEMBL document CHEMBL1914302, “The structure-antituberculosis activity relationships study in a series of 5-aryl-2-thio-1,3,4-oxadiazole derivatives” (2011).

System: Mycobacterium tuberculosis
Assay: Antimycobacterial activity against Mycobacterium tuberculosis H37Rv ATCC 27294 assessed as growth inhibition at 12.5 ug/mL after 4 days by microplate alamar blue assay
Assay type: functional
Conditions: H37Rv ATCC 27294, 96 h, read-out: GI

Point of comparison: `NC(=S)Nc1ccc(-c2nnc(SCC(=O)c3ccc(Cl)cc3Cl)o2)cc1`, inhibition of growth at 12.5 µg/mL 93%. Against it:
- OCCNC(=S)Nc1ccc(-c2nnc(SCc3ccccc3)o2)cc1 — higher, 97%
- C=CCSc1nnc(-c2ccc(NC(N)=S)cc2)o1 — higher, 98%
- C=CCSc1nnc(-c2ccc(NC(=S)NCCO)cc2)o1 — higher, 96%
- NC(=S)Nc1ccc(-c2nnc(SCc3ccncc3)o2)cc1 — higher, 97%
- O=C(CSc1nnc(-c2ccc(NC(=S)NCCO)cc2)o1)c1ccc(Cl)cc1Cl — higher, 98%
- O=C(CSc1nnc(-c2ccc(NC(=S)NCCO)cc2)o1)c1ccccc1 — higher, 96%
- NC(=S)Nc1ccc(-c2nnc(SCc3ccccc3)o2)cc1 — lower, 91%

System: Mycobacterium tuberculosis
Assay: Antimycobacterial activity against Mycobacterium tuberculosis H37Rv ATCC 27294 assessed as growth inhibition at 6.25 ug/mL after 4 days by microplate alamar blue assay
Assay type: functional
Conditions: H37Rv ATCC 27294, 96 h, read-out: GI

Point of comparison: `O=C(CSc1nnc(-c2ccc(N=C=S)cc2)o1)c1ccccc1`, inhibition of growth at 6.25 µg/mL 22%. Against it:
- CSc1nnc(-c2ccc(NC(=S)N3CCOCC3)cc2)o1 — lower, 0%
- S=C=Nc1cccc(-c2nnc(SCc3ccccc3)o2)c1 — lower, 0%
- S=C(Nc1cccc(-c2nnc(S)o2)c1)Nn1cnnc1 — lower, 13%
- CCNC(=S)Nc1ccc(-c2nnc(S)o2)cc1 — lower, 0%
- Cc1ccc(NC(=S)Nc2ccc(-c3nnc(S)o3)cc2)cc1 — lower, 5%
- CSc1nnc(-c2cccc(NC(=S)NCCO)c2)o1 — lower, 8%
- C=CCNC(=S)Nc1ccc(-c2nnc(S)o2)cc1 — lower, 6%
- CSc1nnc(-c2cccc(NC(=S)N3CCOCC3)c2)o1 — lower, 0%
- OCCNC(=S)Nc1ccc(-c2nnc(Sc3ncccn3)o2)cc1 — lower, 14%
- NC(=S)Nc1cccc(-c2nnc(SCC(=O)c3ccc(Cl)cc3)o2)c1 — lower, 0%
- CN(C)C(=S)Nc1cccc(-c2nnc(SCC(=O)c3ccc(Cl)cc3)o2)c1 — lower, 18%
- Cc1ccc(C(=O)CSc2nnc(-c3cccc(NC(=S)N(C)C)c3)o2)cc1 — lower, 10%
- O=C(CSc1nnc(-c2cccc(NC(=S)NCCO)c2)o1)c1ccc2ccccc2c1 — lower, 0%
- CSc1nnc(-c2cccc(NC(=S)Nn3cnnc3)c2)o1 — higher, 58%
- CSc1nnc(-c2ccc(NC(N)=S)cc2)o1 — higher, 78%
- CSc1nnc(-c2ccc(NC(=S)Nn3cnnc3)cc2)o1 — higher, 58%
- O=C(CSc1nnc(-c2cccc(NC(=S)NCCO)c2)o1)c1ccccc1 — lower, 12%
- S=C=Nc1cccc(-c2cnc(SCCc3ccccc3)o2)c1 — lower, 0%
- NC(=S)Nc1cccc(-c2nnc(SCC(=O)c3ccc(Cl)cc3Cl)o2)c1 — lower, 0%
- CSc1nnc(-c2ccc(NC(=S)NN)cc2)o1 — lower, 0%
- C/C(=N/NC(=S)Nc1cccc(-c2nnc(S)o2)c1)c1ccccc1 — lower, 20%
- C=CCSc1nnc(-c2cccc(N=C=S)c2)o1 — lower, 3%
- O=C(CSc1nnc(-c2ccc(N=C=S)cc2)o1)c1ccc(F)cc1 — lower, 12%
- CN(C)C(=S)Nc1cccc(-c2nnc(SCC(=O)c3ccccc3)o2)c1 — lower, 9%
- OCCNC(=S)Nc1ccc(-c2nnc(S)o2)cc1 — lower, 9%
- O=C(CSc1nnc(-c2cccc(NC(=S)NCCO)c2)o1)c1ccc(Cl)cc1Cl — lower, 0%
- CN(C)C(=S)Nc1cccc(-c2nnc(SCC(=O)c3ccc4ccccc4c3)o2)c1 — lower, 0%
- Cc1ccc(NC(S)=Nc2cccc(-c3nnc(S)o3)c2)cc1 — lower, 18%
- S=C=Nc1cccc(-c2nnc(S)o2)c1 — lower, 9%
- CNC(=S)Nc1ccc(-c2nnc(S)o2)cc1 — lower, 0%
- S=C=Nc1ccc(-c2nnc(Sc3ncccn3)o2)cc1 — lower, 14%
- CN(C)C(=S)Nc1cccc(-c2nnc(SCC(=O)c3ccc(Cl)cc3Cl)o2)c1 — lower, 1%
- O=C(CSc1nnc(-c2ccc(N=C=S)cc2)o1)c1ccc(Cl)cc1Cl — lower, 2%
- O=C(CSc1nnc(-c2cccc(N=C=S)c2)o1)c1ccc(Br)cc1 — lower, 0%
- O=C(CSc1nnc(-c2cccc(N=C=S)c2)o1)c1ccc(Cl)cc1Cl — lower, 0%
- NC(=S)Nc1cccc(-c2nnc(SCC(=O)c3ccc(Br)cc3)o2)c1 — lower, 6%
- CSc1nnc(-c2ccc(N=C=S)cc2)o1 — higher, 37%
- NC(=S)Nc1ccc(-c2nnc(Sc3ncccn3)o2)cc1 — higher, 87%
- OCCNC(=S)Nc1cccc(-c2nnc(SCCc3ccccc3)o2)c1 — lower, 13%
- S=C(Nc1ccc(-c2nnc(S)o2)cc1)N1CCCCC1 — higher, 28%
- C=CCSc1nnc(-c2ccc(N=C=S)cc2)o1 — higher, 56%
- S=C=Nc1ccc(-c2nnc(S)o2)cc1 — lower, 2%
- NC(=S)Nc1cccc(-c2nnc(SCCc3ccccc3)o2)c1 — lower, 16%
- S=C(Nc1cccc(-c2nnc(S)o2)c1)N1CCCCC1 — lower, 13%
- CSc1nnc(-c2cccc(NC(N)=S)c2)o1 — higher, 25%
- NC(=S)Nc1cccc(-c2nnc(SCC(=O)c3ccc4ccccc4c3)o2)c1 — lower, 16%
- CN(C)NC(=S)Nc1ccc(-c2nnc(S)o2)cc1 — lower, 9%
- NC(=S)Nc1cccc(-c2nnc(SCc3ccccc3)o2)c1 — lower, 0%
- S=C=Nc1ccc(-c2nnc(SCc3ccncc3)o2)cc1 — higher, 27%
- NC(=S)Nc1ccc(-c2nnc(S)o2)cc1 — higher, 70%
- O=C(CSc1nnc(-c2cccc(N=C=S)c2)o1)c1ccc2ccccc2c1 — lower, 0%
- NNC(=S)Nc1ccc(-c2nnc(S)o2)cc1 [STEMAZOLE] — lower, 0%
- NN=C(S)Nc1cccc(-c2nnc(S)o2)c1 — lower, 0%
- NC(=S)Nc1cccc(-c2nnc(SCC(=O)c3ccc(F)cc3)o2)c1 — lower, 19%
- CSc1nnc(-c2ccc(NC(=S)Nc3ccc(C)cc3)cc2)o1 — lower, 17%
- CSc1nnc(-c2cccc(NC(=S)NN(C)C)c2)o1 — lower, 8%
- NC(=S)Nc1ccc(-c2nnc(SCC(=O)c3ccccc3)o2)cc1 — higher, 61%
- CSc1nnc(-c2ccc(NC(=S)NCCO)cc2)o1 — higher, 67%
- O=C(CSc1nnc(-c2cccc(N=C=S)c2)o1)c1ccc(F)cc1 — lower, 5%
- C=CCNC(=S)Nc1cccc(-c2nnc(S)o2)c1 — lower, 0%
- S=C=Nc1ccc(-c2nnc(SCc3ccccc3)o2)cc1 — lower, 20%
- CNC(=S)Nc1cccc(-c2nnc(SCC(=O)c3ccc4ccccc4c3)o2)c1 — lower, 0%
- OCCNC(=S)Nc1ccc(-c2nnc(SCc3ccncc3)o2)cc1 — higher, 25%
- O=C(CSc1nnc(-c2cccc(N=C=S)c2)o1)c1ccc(Cl)cc1 — lower, 0%
- NC(=S)Nc1cccc(-c2nnc(SCC(=O)c3ccccc3)o2)c1 — lower, 0%
- CSc1nnc(-c2cccc(NC(S)=NN)c2)o1 — lower, 0%
- O=C(CSc1nnc(-c2cccc(NC(=S)NCCO)c2)o1)c1ccc(F)cc1 — lower, 0%
- O=C(CSc1nnc(-c2ccc(NC(=S)NCCO)cc2)o1)c1ccc(F)cc1 — higher, 90%
- O=C(CSc1nnc(-c2cccc(NC(=S)NCCO)c2)o1)c1ccc(Br)cc1 — lower, 17%
- NC(S)=Nc1cccc(-c2nnc(S)o2)c1 — lower, 13%
- CSc1nnc(-c2cccc(NC(=S)Nc3ccc(C)cc3)c2)o1 — lower, 21%
- CN(C)NC(=S)Nc1cccc(-c2nnc(S)o2)c1 — lower, 5%
- CC(C)=NNC(=S)Nc1cccc(-c2nnc(S)o2)c1 — lower, 16%
